Values of other authors in patent publication US20130338095A1, “Chemosensory Receptor Ligand-Based Therapies” (ELCELYX THERAPEUTICS, INC., priority 2010, published 2013).

Target: T1, sweet receptor (Homo sapiens, UniProt Q7RTX0+Q8TE23)
T1 sequence (Q8TE23 20-839): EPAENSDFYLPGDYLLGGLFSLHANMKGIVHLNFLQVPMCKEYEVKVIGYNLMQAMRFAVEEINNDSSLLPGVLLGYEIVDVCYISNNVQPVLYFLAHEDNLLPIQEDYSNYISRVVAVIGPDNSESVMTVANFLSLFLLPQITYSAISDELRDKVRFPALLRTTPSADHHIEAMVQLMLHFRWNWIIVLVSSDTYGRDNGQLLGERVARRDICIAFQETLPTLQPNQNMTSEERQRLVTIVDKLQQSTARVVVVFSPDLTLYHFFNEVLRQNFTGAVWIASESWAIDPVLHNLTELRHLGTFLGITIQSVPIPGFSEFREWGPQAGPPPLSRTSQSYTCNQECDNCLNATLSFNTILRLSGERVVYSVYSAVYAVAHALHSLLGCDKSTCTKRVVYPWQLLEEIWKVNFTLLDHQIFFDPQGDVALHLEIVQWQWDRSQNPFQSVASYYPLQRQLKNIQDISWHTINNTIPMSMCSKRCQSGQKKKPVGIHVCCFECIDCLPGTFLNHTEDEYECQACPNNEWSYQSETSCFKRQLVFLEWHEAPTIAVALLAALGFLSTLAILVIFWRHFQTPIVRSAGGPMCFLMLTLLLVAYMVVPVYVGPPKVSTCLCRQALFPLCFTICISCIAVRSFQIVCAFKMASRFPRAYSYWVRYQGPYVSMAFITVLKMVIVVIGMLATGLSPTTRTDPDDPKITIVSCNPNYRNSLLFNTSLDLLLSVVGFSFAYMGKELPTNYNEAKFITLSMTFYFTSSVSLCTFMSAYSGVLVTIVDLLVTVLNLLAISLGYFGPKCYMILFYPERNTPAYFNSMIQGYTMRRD
T1 sequence (Q7RTX0 21-852): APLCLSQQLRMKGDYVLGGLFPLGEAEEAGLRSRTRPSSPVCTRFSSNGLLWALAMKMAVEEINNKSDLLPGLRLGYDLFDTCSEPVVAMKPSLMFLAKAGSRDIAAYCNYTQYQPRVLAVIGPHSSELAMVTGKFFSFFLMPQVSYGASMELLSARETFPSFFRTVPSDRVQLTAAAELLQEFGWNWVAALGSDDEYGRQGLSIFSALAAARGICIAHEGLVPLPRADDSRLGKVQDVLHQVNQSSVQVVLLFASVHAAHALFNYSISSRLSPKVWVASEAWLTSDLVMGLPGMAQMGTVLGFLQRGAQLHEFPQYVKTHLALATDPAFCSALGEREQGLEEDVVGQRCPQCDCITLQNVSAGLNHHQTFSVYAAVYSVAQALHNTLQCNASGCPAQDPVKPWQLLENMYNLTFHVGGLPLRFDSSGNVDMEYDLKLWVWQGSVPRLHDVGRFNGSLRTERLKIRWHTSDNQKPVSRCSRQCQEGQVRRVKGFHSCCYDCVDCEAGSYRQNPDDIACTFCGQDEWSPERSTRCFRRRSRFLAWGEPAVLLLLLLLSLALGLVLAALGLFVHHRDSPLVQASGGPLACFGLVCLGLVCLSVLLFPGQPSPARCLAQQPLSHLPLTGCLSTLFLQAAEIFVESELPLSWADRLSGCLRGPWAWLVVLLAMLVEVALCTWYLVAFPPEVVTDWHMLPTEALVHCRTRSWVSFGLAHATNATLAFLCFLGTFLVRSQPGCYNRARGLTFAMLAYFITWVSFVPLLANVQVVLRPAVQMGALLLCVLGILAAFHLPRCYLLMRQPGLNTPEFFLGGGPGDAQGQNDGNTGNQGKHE
Details: relative sweetness on a weight comparison basis to sucrose (=1.0)

| Sweetness/potency | SMILES |
| --- | --- |
| 25 | COc1c(O)cc2c(c1O)C(=O)[C@H](OC(C)=O)[C@@H](c1ccc(O)c(O)c1)O2 [(2R,3R)-2,3-Dihydro-5,7,3′,4′-tetrahydroxy-6-methoxy-3-O-acetylflavonol] |
| 15 | COc1c(O)cc2c(c1O)C(=O)[C@H](O)[C@@H](c1ccc(O)c(O)c1)O2 [(2R,3R)-2,3-Dihydro-5,7,3′,4′-tetrahydroxy-6-methoxyflavonol] |
| 20 | COc1c(O)cc2c(c1O)C(=O)[C@H](OC(C)=O)[C@@H](c1ccc(O)cc1)O2 [(2R,3R)-2,3-Dihydro-5,7,4′-trihydroxy-6-methoxy-3-O-acetylflavonol] |
| 80 | CC(=O)O[C@H]1C(=O)c2c(O)cc(O)cc2O[C@@H]1c1ccc(O)c(O)c1 [(2R,3R)-Dihydroquercetin 3-O-acetate] |
| 1,500 | CC(C)=CCC[C@](C)(O)[C@@H]1CCC(C)=CC1=O [(+)-Hernandulcin] |
| 30 | CC1=CC[C@@H]([C@@H](C)[C@H]2CC[C@@]3(C)[C@@H]4CC[C@H]5[C@](C)(C(=O)O)[C@@H](O[C@@H]6O[C@H](CO)[C@@H](O)[C@H](O)[C@H]6O)CC[C@@]56C[C@@]46CC[C@]23C)OC1=O [Abrusoside A] |
| 100 | COC(=O)[C@H]1O[C@@H](O[C@H]2[C@H](O[C@H]3CC[C@]45C[C@]46CC[C@]4(C)[C@@H]([C@H](C)[C@@H]7CC=C(C)C(=O)O7)CC[C@@]4(C)[C@@H]6CC[C@H]5[C@]3(C)C(=O)O)O[C@H](CO)[C@@H](O)[C@@H]2O)[C@H](O)[C@@H](O)[C@@H]1O [Abrusoside B] |
| 50 | CC1=CC[C@@H]([C@@H](C)[C@H]2CC[C@@]3(C)[C@@H]4CC[C@H]5[C@](C)(C(=O)O)[C@@H](O[C@@H]6O[C@H](CO)[C@@H](O)[C@H](O)[C@H]6O[C@@H]6O[C@H](CO)[C@@H](O)[C@H](O)[C@H]6O)CC[C@@]56C[C@@]46CC[C@]23C)OC1=O [Abrusoside C] |
| 75 | CC1=CC[C@@H]([C@@H](C)[C@H]2CC[C@@]3(C)[C@@H]4CC[C@H]5[C@](C)(C(=O)O)[C@@H](O[C@@H]6O[C@H](CO)[C@@H](O)[C@H](O)[C@H]6O[C@@H]6O[C@H](C(=O)O)[C@@H](O)[C@H](O)[C@H]6O)CC[C@@]56C[C@@]46CC[C@]23C)OC1=O [Abrusoside D] |
| 5 | CC1(C)C[C@H]2C3=CC[C@@H]4[C@@]5(C)CC[C@H](O[C@@H]6O[C@H](CO[C@@H]7OC[C@H](O)[C@H](O)[C@H]7O[C@@H]7OC[C@@H](O)[C@H](O)[C@H]7O)[C@@H](O)[C@H](O)[C@H]6O)C(C)(C)[C@@H]5CC[C@@]4(C)[C@]3(C)C[C@@H](O)[C@@]23C[C@@H]1OC3=O [Albiziasaponin A] |
| 300 | CC1(C(=O)O)CCC2(C)CCC3(C)C(=CC(=O)C4C5(C)CCC(OC6OC(C(=O)O)C(O)C(O)C6OC6OCC(O)(CO)C6O)C(C)(C)C5CCC43C)C2C1 (stereo not shown) [Apioglycyrrhizin] |
| 150 | CC1(C)[C@@H](O[C@H]2O[C@H](C(=O)O)[C@@H](O)[C@H](O)[C@H]2O[C@@H]2OC[C@H](O)[C@H](O)[C@H]2O)CC[C@]2(C)[C@H]3C(=O)C=C4[C@@H]5C[C@@](C)(C(=O)O)CC[C@]5(C)CC[C@@]4(C)[C@]3(C)CC[C@@H]12 [Araboglycyrrhizin] |
| 77 | C/C(=C\CC[C@@H](C)[C@H]1CC[C@@]2(C)[C@@H]3CC=C4[C@@H](CC[C@H](O[C@@H]5O[C@H](CO)[C@@H](O)[C@H](O)[C@H]5O)C4(C)C)[C@]3(C)[C@H](O)C[C@]12C)CO[C@@H]1O[C@H](CO[C@@H]2O[C@H](CO)[C@@H](O)[C@H](O)[C@H]2O)[C@@H](O)[C@H](O)[C@H]1O [Carnosifloside VI] |
| 30 | C=C1C[C@@]23CC[C@H]4[C@@](C)(CCC[C@@]4(C)C(=O)O[C@@H]4O[C@H](CO)[C@@H](O)[C@H](O)[C@H]4O)[C@@H]2CC[C@]1(O[C@@H]1O[C@H](CO)[C@@H](O)[C@H](O)[C@H]1O[C@@H]1O[C@@H](C)[C@H](O)[C@@H](O)[C@H]1O)C3 [Dulcoside A] |
| 55 | C/C(=C\CO)CCC1=C(C=O)CC(OC2OCC(O)C(O)C2O)C2C(C)(CO)CCCC12C (stereo not shown) [Gaudichaudioside A] |
| ca. 1 | C/C(=C\CC/C(C)=C/CO[C@@H]1O[C@H](CO)[C@@H](O)[C@H](O[C@@H]2O[C@@H](C)[C@H](O)[C@@H](O)[C@H]2O)[C@H]1O[C@@H]1O[C@@H](C)[C@H](O)[C@@H](O)[C@H]1O)CC/C=C(\C)CO[C@@H]1O[C@H](CO)[C@@H](O)[C@H](O[C@@H]2O[C@@H](C)[C@H](O)[C@@H](O)[C@H]2O)[C@H]1O[C@@H]1O[C@@H](C)[C@H](O)[C@@H](O)[C@H]1O [Mukurozioside IIb] |
| 300 | C[C@@H]1O[C@@H](O[C@H]2[C@H](Oc3cc(O)c(C(=O)CCc4ccc(O)cc4)c(O)c3)O[C@H](CO)[C@@H](O)[C@@H]2O)[C@H](O)[C@H](O)[C@H]1O [Naringin dihydrochalcone] |
| 1,000 | COc1ccc(CCC(=O)c2c(O)cc(O[C@@H]3O[C@H](CO)[C@@H](O)[C@H](O)[C@H]3O[C@@H]3O[C@@H](C)[C@H](O)[C@@H](O)[C@H]3O)cc2O)cc1O [Neohesperidin dihydrochalcone] |
| 500 | C[C@@H]1O[C@@H](O[C@H]2O[C@@H]([C@@H](C)C3CC[C@@H]4[C@H]5CC(=O)[C@@H]6C[C@H](O[C@@H]7O[C@H](CO)[C@@H](O)[C@H](O)[C@H]7O[C@@H]7O[C@@H](C)[C@H](O)[C@@H](O)[C@H]7O)CC[C@]6(C)[C@@H]5CC[C@]34C)CC[C@@H]2C)[C@H](O)[C@H](O)[C@H]1O (stereo partly shown) [Osladin] |
| 92 | CC1(C(=O)O)C=C2C3CCC4C5(CO)CCC(OC6OC(C(=O)O)C(O)C(O)C6OC6OC(C(=O)O)C(O)C(O)C6O)C(C)(C)C5CCC4(C)C3(C)CCC2(C)CC1 (stereo not shown) [Periandrin III] |
| 90 | CC1(C)[C@@H](O[C@@H]2O[C@H](C(=O)O)[C@@H](O)[C@H](O)[C@H]2O[C@@H]2O[C@H](C(=O)O)[C@@H](O)[C@H](O)[C@H]2O)CC[C@]2(C=O)[C@H]3CC[C@@H]4C5=C[C@@](C)(C(=O)O)CC[C@]5(C)CC[C@@]4(C)[C@]3(C)CC[C@@H]12 [Periandrin I] |
| 220 | CC1(C(=O)O)C=C2C3CCC4C5(C=O)CCC(OC6OC(C(=O)O)C(O)C(O)C6OC6OCC(O)C(O)C6O)C(C)(C)C5CCC4(C)C3(C)CCC2(C)CC1 (stereo not shown) [Periandrin V] |
| 400 | COc1ccc([C@H]2Cc3cccc(O)c3C(=O)O2)cc1O [Phyllodulcin] |
| 100 | C=C(C)C1CCC2(C)C(CC(OC3OCC(O)C(O)C3O)C3C(C(C)(O)C/C=C/C(C)(C)O)CCC32C)C1(C)CCC(=O)O (stereo not shown) [Pterocaryoside B] |
| 35 | Oc1ccc([C@H]2Oc3c(c(O)cc4c3[C@H]3c5c(O)cc(O)cc5O[C@@](c5ccc(O)cc5)(O4)[C@@H]3O)[C@H](c3c(O)cc(O)c4c3O[C@H](c3ccc(O)cc3)[C@@H](O)C4)[C@H]2O)cc1 [Selligueain A] |
| 90 | C=C1C[C@@]23CC[C@H]4[C@@](C)(CCC[C@@]4(C)C(=O)O)[C@@H]2CC[C@]1(O[C@@H]1O[C@H](CO)[C@@H](O)[C@H](O)[C@H]1O[C@@H]1O[C@H](CO)[C@@H](O)[C@H](O)[C@H]1O)C3 [Steviolbioside] |

| SMILES | Sweetness/potency |
| --- | --- |
| COc1ccc(C2Oc3cc(O)cc(O)c3C(=O)C2OC(C)=O)cc1O (stereo not shown) [Dihydroquercetin 3-O-acetate 4′-methyl ether] | 400 |
| Oc1cc2c(cc1O)[C@@H]1c3ccc(O)c(O)c3OC[C@]1(O)C2 [Hematoxylin] | 120 |
